Columns and labels:
Experiment in all cases: relative viability (nuclei count vs DMSO), 5 days (fraction); higher = more cells survive
[1] = compound: CNC(=O)c1ccccc1Sc1ccc2c(/C=C/c3ccccn3)n[nH]c2c1 [Axitinib] + Cc1nc(Nc2ncc(C(=O)Nc3c(C)cccc3Cl)s2)cc(N2CCN(CCO)CC2)n1 [Dasatinib] (partner 0.075 µM)
Outline: (§1)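 Lung cancer cell lines in 1536-well plates got either a single drug or a fixed anchor-drug dose together with five library-drug doses (not always all listed) in √10 steps, by pin tool, on the day after seeding. Nuclei were counted after 5 days, and relative viability is the treated-to-vehicle ratio of nuclei counts. Values are medians of duplicate plates.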

[2] = compound: Nc1nc(Nc2ccc3c(c2)CC[C@@H](N2CCCC2)CC3)nn1-c1cc2c(nn1)-c1ccccc1CCC2 [Bemcentinib] + Nc1ncn([C@H]2C[C@H](O)[C@@H](CO)O2)c(=O)n1 [Decitabine] (partner 2 µM)
Outline: as §1

[3] = compound: CNC(=O)c1ccccc1Sc1ccc2c(/C=C/c3ccccn3)n[nH]c2c1 [Axitinib] + N=C(N)NC(=N)NCCc1ccccc1 [Phenformin] (partner 250 µM)
Outline: as §1

[4] = compound: CNC(=O)c1ccccc1Sc1ccc2c(/C=C/c3ccccn3)n[nH]c2c1 [Axitinib] + NC(=O)Nc1cc(-c2cccc(F)c2)sc1C(=O)N[C@H]1CCCNC1 [AZD7762] (partner 0.2 µM)
Outline: as §1

Cell Line | relative viability ([1]; first compound 0.005 µM) | relative viability ([1]; first compound 0.01581 µM) | relative viability ([1]; first compound 0.05 µM) | relative viability ([1]; first compound 0.1581 µM) | relative viability ([1]; first compound 0.5 µM) | relative viability ([2]; first compound 0.04 µM) | relative viability ([2]; first compound 0.1265 µM) | relative viability ([2]; first compound 0.4 µM) | relative viability ([2]; first compound 1.265 µM) | relative viability ([2]; first compound 4 µM) | relative viability ([3]; first compound 0.005 µM) | relative viability ([3]; first compound 0.01581 µM) | relative viability ([3]; first compound 0.05 µM) | relative viability ([3]; first compound 0.1581 µM) | relative viability ([3]; first compound 0.5 µM) | relative viability ([4]; first compound 0.005 µM) | relative viability ([4]; first compound 0.01581 µM) | relative viability ([4]; first compound 0.05 µM) | relative viability ([4]; first compound 0.1581 µM) | relative viability ([4]; first compound 0.5 µM)
NCI-H661 | 1.01 | 0.737 | 0.843 | 0.83 | 0.927 | 0.558 | 0.654 | 0.547 | 0.57 | 0.557 | 0.281 | 0.29 | 0.271 | 0.267 | 0.285 |  |  |  |  | 
NCI-H1563 | 0.482 | 0.456 | 0.457 | 0.449 | 0.426 |  |  |  |  |  | 0.778 | 0.654 | 0.625 | 0.616 | 0.667 |  |  |  |  | 
NCI-H1623 | 0.574 | 0.477 | 0.559 | 0.528 | 0.506 |  |  |  |  |  | 0.669 | 0.585 | 0.315 | 0.613 | 0.6 |  |  |  |  | 
NCI-H1648 |  |  |  |  |  | 0.411 | 0.413 | 0.483 | 0.569 | 0.43 |  |  |  |  |  | 0.725 | 0.57 | 0.666 | 0.733 | 0.682
NCI-H1650 | 0.317 | 0.318 | 0.324 | 0.332 | 0.302 | 0.428 | 0.416 | 0.389 | 0.517 | 0.417 | 0.488 | 0.309 | 0.553 | 0.352 | 0.536 |  |  |  |  | 
NCI-H1703 |  |  |  |  |  |  |  |  |  |  |  |  |  |  |  | 0.135 | 0.11 | 0.118 | 0.121 | 0.125
NCI-H2009 | 0.303 | 0.35 | 0.355 | 0.301 | 0.413 | 0.404 | 0.353 | 0.492 | 0.399 | 0.434 | 0.492 | 0.497 | 0.506 | 0.513 | 0.577 |  |  |  |  | 
NCI-H2023 | 0.537 | 0.525 | 0.701 | 0.515 | 0.621 | 0.204 | 0.264 | 0.233 | 0.282 | 0.224 | 0.426 | 0.436 | 0.467 | 0.372 | 0.473 |  |  |  |  | 
NCI-H2228 | 0.471 | 0.616 | 0.558 | 0.476 | 0.697 |  |  |  |  |  | 0.324 | 0.326 | 0.412 | 0.36 | 0.269 |  |  |  |  | 
SK-LU-1 | 0.163 | 0.186 | 0.171 | 0.181 | 0.215 | 0.533 | 0.764 | 0.74 | 0.615 | 0.623 | 0.601 | 0.597 | 0.622 | 0.558 | 0.752 |  |  |  |  | 
SK-MES-1 | 0.42 | 0.435 | 0.446 | 0.382 | 0.622 | 0.363 | 0.361 | 0.451 | 0.315 | 0.379 | 0.65 | 0.653 | 0.654 | 0.631 | 0.738 |  |  |  |  | 
SW 1573 | 0.586 | 0.564 | 0.796 | 0.365 | 0.424 | 0.427 | 0.55 | 0.595 | 0.544 | 0.468 | 0.465 | 0.37 | 0.398 | 0.295 | 0.408 |  |  |  |  | 
UMC-11 | 0.447 | 0.442 | 0.448 | 0.444 | 0.54 | 0.576 | 0.565 | 0.521 | 0.628 | 0.58 | 0.343 | 0.353 | 0.322 | 0.326 | 0.34 |  |  |  |  | 

From the supplement of paper PMC10307832
